Structures can show the parent of a compound that is named as a salt.
What was measured:
NF-κB [1] = assay: 293-cell pNF-κB-luc reporter assay, TNF-α induced; assay type: cell-based; details: HEK293 cells, NF-κB driven luciferase expression, read-out: 293/NFkB-luc EC50
Procedure: (§1) Inhibition of NF-κB in cells by the compound of Example 1. Two reporter cell assays were used to determine the ability of the compound of Example 1 to inhibit NE-KB driven transcription. The first assay was a 293-cell based assay with a stably integrated pNF-κB-luc reporter plasmid containing 3 NF-κB promoter elements. The second assay was a 293-cell based assay with a stably integrated pTRH1-NF-κB-dscGFP reporter containing 4 NF-κB promoter elements. Cells were treated with 0, 0.2, 1, 10, 20 and 40 μM of the compound of Example 1 for 2 hours then were induced with 20 ng/ml TNF-α for 18 hours. Following the induction, luminescence or fluorescence was quantified using a Beckman-Coulter 2300 plate reader. […] These values represent the median value generated from three independent experiments±the standard error. As a control, 0.5% DMSO treated and untreated cells were compared to verify that the Example 1 carrier had no effect on the expression of luciferase or in the readout of the assay. There was a slight decrease in the output from the assay in the DMSO treated population although it was not statistically significant. As a result of the controls, the decrease in activity in the drug treated samples was compared to the DMSO control sample.

NF-κB [2] = assay: 293-cell pTRH1-NF-κB-dscGFP reporter assay, TNF-α induced; assay type: cell-based; details: NF-κB driven GFP expression, read-out: NF-kB/293/GFP EC50
Procedure: as §1

[3] = tested on: IL-6 release from RAW264.7 cells; assay: IL-6 release from LPS stimulated RAW264.7 cells; assay type: cell-based, mouse
Procedure: Specifically, A and B show the effects of the compound of Example 1 on soluble PGE2 and Il-6 secretion from RAW264.7 cells stimulated by 1 μg/mL of LPS. The cells were treated with the indicated concentrations of the compound of Example 1 for 2 hours, and then LPS was added and incubation continued for 4 hours. […]

p65 (RelA) = p65 (RelA) (Homo sapiens, UniProt Q04206); assay: TransAM NF-κB Family DNA Binding ELISA, p65; details: p65 binding IC50 (uM), binding to NF-κB sites
Procedure: (§2) Treated samples were then transferred to 30 μL Complete Binding Buffer (with DTT) in microplate wells pre-coated with the NF-κB consensus oligonucleotide. […] The plate was incubated for 1 hour at room temperature with gentle shaking and then washed 3 times with 200 μL 1× Wash Buffer. NF-κB p65, p50, p52, RelB, or c-Rel subunits bound to the plate were detected with 100 μL of the primary antibody (diluted 1:1000 in 1× Antibody Buffer) specific for that subunit. The plate was incubated for 1 hour at room temperature and then washed 3 times with 200 μL 1× Wash Buffer. Next, 100 μL of a HRP conjugated goat anti-rabbit antibody (diluted 1:1,000 in 1× Antibody Buffer) was added to each well. The plate was incubated for 1 hour at room temperature and then washed 4 times with 200 μL 1× Wash Buffer. 100 μL of room temperature Developing Solution was added to each well. The reaction was allowed to develop for 2-10 minutes until a medium dark blue color developed (depending on the subunit activity in the lot of extract or lot of recombinant protein used) and then the reaction was stopped with 100 μL Stop Solution yielding a yellow color. Absorbance was recorded using a Becton-Dickinson DTX 880 Multimode Detector at 450 nm with a reference wavelength subtracted at 620 nm.

p52 = biological target: T1, p52 (Homo sapiens, UniProt Q00653); assay: TransAM NF-κB Family DNA Binding ELISA, p52; details: for IC50: p52 binding IC50 (uM), cells without % sign
T1 sequence (Q00653 1-454 limits assumed): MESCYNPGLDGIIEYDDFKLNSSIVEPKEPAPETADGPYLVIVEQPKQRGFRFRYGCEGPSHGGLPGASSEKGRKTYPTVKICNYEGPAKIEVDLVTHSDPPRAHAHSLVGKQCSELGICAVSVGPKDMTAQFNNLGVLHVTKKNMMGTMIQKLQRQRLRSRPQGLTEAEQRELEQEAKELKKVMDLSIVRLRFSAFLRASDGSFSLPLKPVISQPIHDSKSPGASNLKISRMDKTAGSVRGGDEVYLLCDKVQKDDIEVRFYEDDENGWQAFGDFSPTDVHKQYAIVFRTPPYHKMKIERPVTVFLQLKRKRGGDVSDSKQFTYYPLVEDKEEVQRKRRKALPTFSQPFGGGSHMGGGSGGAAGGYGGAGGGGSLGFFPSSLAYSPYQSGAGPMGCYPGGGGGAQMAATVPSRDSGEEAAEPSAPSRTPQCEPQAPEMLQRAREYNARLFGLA
Procedure: as §2

RelB = biological target: T2, RelB (Homo sapiens, UniProt Q01201); assay: TransAM NF-κB Family DNA Binding ELISA, RelB; details: at 5 uM
T2 sequence (Q01201 1-579): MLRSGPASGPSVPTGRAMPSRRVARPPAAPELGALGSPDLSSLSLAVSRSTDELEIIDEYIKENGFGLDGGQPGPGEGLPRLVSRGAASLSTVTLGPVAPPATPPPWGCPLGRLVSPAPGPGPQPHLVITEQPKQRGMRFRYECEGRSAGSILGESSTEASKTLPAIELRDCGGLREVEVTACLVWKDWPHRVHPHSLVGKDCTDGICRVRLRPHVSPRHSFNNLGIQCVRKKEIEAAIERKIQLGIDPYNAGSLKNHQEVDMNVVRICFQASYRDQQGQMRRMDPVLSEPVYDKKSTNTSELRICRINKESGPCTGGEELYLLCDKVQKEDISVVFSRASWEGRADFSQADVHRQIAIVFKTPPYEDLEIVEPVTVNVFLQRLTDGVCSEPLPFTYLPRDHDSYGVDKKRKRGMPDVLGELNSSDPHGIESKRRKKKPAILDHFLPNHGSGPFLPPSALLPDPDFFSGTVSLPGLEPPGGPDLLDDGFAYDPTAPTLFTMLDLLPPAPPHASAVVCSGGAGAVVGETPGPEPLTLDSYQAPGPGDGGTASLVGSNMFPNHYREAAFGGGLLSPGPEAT
T2 sequence (Q00653 1-454 partner limits assumed): T1 sequence (Q00653 1-454 limits assumed)

c-Rel = biological target: T3, c-Rel (Homo sapiens, UniProt Q04864); assay: TransAM NF-κB Family DNA Binding ELISA, c-Rel; details: at 5 uM
T3 sequence (Q04864 2-619 limits assumed): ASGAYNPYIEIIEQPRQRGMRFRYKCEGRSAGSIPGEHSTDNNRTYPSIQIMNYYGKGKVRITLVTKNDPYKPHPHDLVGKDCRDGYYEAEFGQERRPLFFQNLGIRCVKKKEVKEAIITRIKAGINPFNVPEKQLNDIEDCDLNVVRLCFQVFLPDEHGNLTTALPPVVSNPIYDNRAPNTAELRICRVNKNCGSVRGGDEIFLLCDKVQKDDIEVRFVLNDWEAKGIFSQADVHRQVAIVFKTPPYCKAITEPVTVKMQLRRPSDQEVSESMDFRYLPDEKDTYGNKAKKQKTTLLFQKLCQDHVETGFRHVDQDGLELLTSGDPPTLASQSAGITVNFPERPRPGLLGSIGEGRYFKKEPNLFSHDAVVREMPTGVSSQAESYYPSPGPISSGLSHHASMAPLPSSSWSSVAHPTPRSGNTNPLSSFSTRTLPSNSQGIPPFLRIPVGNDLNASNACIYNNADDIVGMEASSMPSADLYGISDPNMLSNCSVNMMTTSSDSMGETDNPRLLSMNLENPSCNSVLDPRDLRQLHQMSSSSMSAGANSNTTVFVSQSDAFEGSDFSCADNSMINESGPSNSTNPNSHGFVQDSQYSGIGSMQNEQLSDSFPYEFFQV
Procedure: as §2

p50 = biological target: T4, p50 (Homo sapiens, UniProt P19838); assay: TransAM NF-κB Family DNA Binding ELISA, p50; details: p50 binding IC50 (uM), cells without % sign
T4 sequence (P19838 1-433 limits assumed): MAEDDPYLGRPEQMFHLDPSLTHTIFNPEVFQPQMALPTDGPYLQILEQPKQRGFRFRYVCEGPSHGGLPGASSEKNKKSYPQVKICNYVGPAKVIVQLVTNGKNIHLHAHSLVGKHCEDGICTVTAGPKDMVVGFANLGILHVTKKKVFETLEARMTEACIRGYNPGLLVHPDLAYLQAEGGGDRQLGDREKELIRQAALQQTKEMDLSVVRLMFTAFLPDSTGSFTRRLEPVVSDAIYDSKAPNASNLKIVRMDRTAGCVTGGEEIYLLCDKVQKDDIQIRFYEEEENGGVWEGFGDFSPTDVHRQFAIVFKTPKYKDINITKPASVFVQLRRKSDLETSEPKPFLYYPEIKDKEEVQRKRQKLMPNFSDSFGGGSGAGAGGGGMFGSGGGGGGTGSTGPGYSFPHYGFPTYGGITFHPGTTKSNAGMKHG
Procedure: as §2

[4] = Homo sapiens, HEK293, HEK293 cells
[5] = Mus musculus, RAW264.7, RAW 264.7 cells
[6] = RAW 264.7 cells, trifluoroacetate

Chain of p65 (RelA) (Q04206 whole entry): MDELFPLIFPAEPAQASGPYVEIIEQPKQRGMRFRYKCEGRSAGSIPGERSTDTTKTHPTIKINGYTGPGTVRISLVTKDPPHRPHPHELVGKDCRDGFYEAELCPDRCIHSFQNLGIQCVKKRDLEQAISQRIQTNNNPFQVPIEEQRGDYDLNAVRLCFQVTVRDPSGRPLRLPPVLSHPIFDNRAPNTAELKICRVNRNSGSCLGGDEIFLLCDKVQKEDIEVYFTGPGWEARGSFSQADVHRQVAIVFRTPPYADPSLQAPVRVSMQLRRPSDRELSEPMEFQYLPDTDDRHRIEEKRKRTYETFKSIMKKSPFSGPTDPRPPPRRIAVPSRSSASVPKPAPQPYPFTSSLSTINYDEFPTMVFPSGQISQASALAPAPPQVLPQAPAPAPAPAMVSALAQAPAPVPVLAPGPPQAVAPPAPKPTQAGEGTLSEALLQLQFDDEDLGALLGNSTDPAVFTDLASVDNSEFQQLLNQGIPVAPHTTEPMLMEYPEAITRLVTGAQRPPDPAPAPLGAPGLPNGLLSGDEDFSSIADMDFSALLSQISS

With `O=C(NC1=CC(=O)C2OC2C1O)c1ccc(C(F)(F)F)nc1O` (racemic) [Example 23, (±)-2-hydroxy-N-(2-hydroxy-5-oxo-7-oxa-bicyclo[4.1.0]hept-3-en-3-yl)-6-trifluoromethyl-nicotinamide] the EC50 (NF-κB [1]) was > 40 µM, the EC50 (NF-κB [2]; [4]) was > 40 µM and the EC50 [3, 5] was 24.8 µM. The IC50 (p65 (RelA)) was 6.4 µM.

With `O=C(NC1=CC(=O)C2OC2C1O)c1ncccc1O.O=C(O)C(F)(F)F` (racemic) [Example 13, (±)-3-hydroxy-N-(2-hydroxy-5-oxo-7-oxabicyclo[4.1.0]hept-3-en-3-yl)picolinamide trifluoroacetate] the EC50 (NF-κB [1]; trifluoroacetate) was 9.2 µM, the EC50 [3, 6] was 1.4 µM and the “p52 binding % inhibit. at 5 uM” value (p52) was 0%. For the same compound, the “RelB binding % inhibit. at 5 uM” value (RelB) was 10% and the “c-Rel binding % inhibit. at 5 uM” value (c-Rel) was 15%.

`CS(=O)(=O)O.O=C(NC1=CC(=O)C2OC2C1O)c1ncccc1O` (racemic) [Example 12, (±)-3-hydroxy-N-(2-hydroxy-5-oxo-7-oxabicyclo[4.1.0]hept-3-en-3-yl)picolinamide, mesylate] was tested, and the EC50 (NF-κB [1]; mesylate) was 22 µM, the EC50 ([3]; RAW 264.7 cells, mesylate) was 2.5 µM and the “p52 binding % inhibit. at 5 uM” value (p52) was 14%. For the same compound, the “RelB binding % inhibit. at 5 uM” value (RelB) was 6% and the “c-Rel binding % inhibit. at 5 uM” value (c-Rel) was 7%.

With `O=C(NC1=CC(=O)C2OC2C1=O)c1ccncc1O` (racemic) [Example 34, (±)-N-(2,5-dioxo-7-oxabicyclo[4.1.0]hept-3-en-3-yl)-3-hydroxyisonicotinamide] the EC50 (NF-κB [1]) was > 51 µM, the EC50 (NF-κB [2]; [4]) was 39 µM and the EC50 [3, 5] was 42 µM. The IC50 (p65 (RelA)) was 12 µM, the IC50 (p50) was 90 µM and the IC50 (p52) was 96 µM.

Compound `COc1c(C(=O)NC2=CC(=O)C3OC3C2=O)ccc2cccnc12` (racemic) [Example 32, (±)-N-(2,5-diose-7-oxabicyclo[4.1.0]hept-3-en-3-yl)-8-methoxyquinoline-7-carboxamide] has an EC50 (NF-κB [1]) of 3.4 µM, an EC50 (NF-κB [2]; [4]) of 3 µM and an EC50 [3, 5] of 0.24 µM. For the same compound, the IC50 (p65 (RelA)) was 30 µM, the IC50 (p50) was > 514 µM and the IC50 (p52) was > 514 µM.

`COc1c(C(=O)NC2=CC(=O)C3OC3C2O)ccc2cccnc12` (racemic) [Example 33, (±)-N-(2-hydroxy-5-oxo-7-oxabicyclo[4.1.0]hept-3-en-3-yl)-8-methoxyquinoline-7-carboxamide trifluoroacetate] gave an EC50 (NF-κB [1]; trifluoroacetate) of 0.53 µM, an EC50 (NF-κB [2]; HEK293 cells, trifluoroacetate) of 2 µM and an EC50 [3, 6] of 0.26 µM. For the same compound, the IC50 (p65 (RelA)) was 4.8 µM, the IC50 (p50) was > 378 µM and the IC50 (p52) was > 378 µM.

`COc1nc2ccccc2cc1C(=O)NC1=CC(=O)C2OC2C1=O` (racemic) [Example 35, (±)-N-(2,5-dioxo-7-oxabicyclo[4.1.0]hept-3-en-3-yl)-2-methoxyquinoline-3-carboxamide] showed an EC50 (NF-κB [1]) of 3.1 µM, an EC50 (NF-κB [2]; [4]) of 5.3 µM and an EC50 [3, 5] of 0.44 µM. It also gave an IC50 (p65 (RelA)) of 50 µM, an IC50 (p50) of 148 µM and an IC50 (p52) of 81 µM.

`COc1cc2ccccc2nc1C(=O)NC1=CC(=O)C2OC2C1O` (racemic) [Example 31, (±)-N-(2-hydroxy-5-oxo-7-oxabicyclo[4.1.0]hept-3-en-3-yl)-3-methoxyquinoline-2-carboxamide] showed an EC50 (NF-κB [1]) of 3.9 µM, an EC50 (NF-κB [2]; [4]) of 5.6 µM and an EC50 [3, 5] of 1 µM. It also gave an IC50 (p65 (RelA)) of 38 µM, an IC50 (p50) of 28 µM and an IC50 (p52) of 21 µM.

Compound `COc1ncccc1C(=O)NC1=CC(=O)C2OC2C1=O` (racemic) [Example 30, (±)-N-(2,5-Dioxo-7-oxa-bicyclo[4.1.0]hept-3-en-3-yl)-2-methoxy-nicotinamide] has an EC50 (NF-κB [1]) of 2.7 µM, an EC50 (NF-κB [2]; [4]) of 4.3 µM and an EC50 [3, 5] of 0.76 µM. The IC50 (p65 (RelA)) was 36 µM, the IC50 (p50) was > 608 µM and the IC50 (p52) was > 608 µM.

`O=C(NC1=CC(=O)C2OC2C1O)c1nc(Cl)c2ccccc2c1O` (racemic) [Example 27, (±)-1-chloro-4-hydroxy-isoquinoline-3-carboxylic acid (2-hydroxy-5-oxo-7-oxa-bicyclo[4.1.0]hept-3-en-3-yl)-amide] gave an EC50 (NF-κB [1]) of 9.7 µM, an EC50 (NF-κB [2]; [4]) of 6.7 µM and an EC50 [3, 5] of 0.71 µM. It also gave an IC50 (p65 (RelA)) of 30 µM.

`Cc1ncc(C(=O)NC2=CC(=O)C3OC3C2O)c(O)n1` (racemic) [Example 24, (±)-4-hydroxy-2-methyl-pyrimidine-5-carboxylic acid (2-hydroxy-5-oxo-7-oxa-bicyclo[4.1.0]hept-3-en-3-yl)-amide] was tested, and the EC50 (NF-κB [1]) was > 48 µM, the EC50 (NF-κB [2]; [4]) was > 48 µM and the EC50 [3, 5] was 27.1 µM. For the same compound, the IC50 (p65 (RelA)) was 2.3 µM.

With `COc1cccnc1C(=O)NC1=CC(=O)C2OC2C1O` (racemic) [Example 22, (±)-3-methoxy-pyridine-2-carboxylic acid (2-hydroxy-5-oxo-7-oxa-bicyclo[4.1.0]hept-3-en-3-yl)-amide trifluoroacetate] the EC50 (NF-κB [1]; trifluoroacetate) was > 34 µM, the EC50 [3, 6] was > 34 µM and the IC50 (p65 (RelA)) was 13.2 µM.
